According to patent US6716833B2, “Acetylenic α-amino acid-based sulfonamide hydroxamic acid tace inhibitors” (priority 1999, dated 2004):
Where a name gives a salt, the structure may show the parent alone. Read-outs that look alike come from different tables or passages of the source.

Assays:
MMP-1 = target: T1, MMP-1 (Homo sapiens, UniProt P03956); experiment: MMP-1 inhibition (thiopeptide or fluorescent peptide substrate); assay type: biochemical
T1 sequence (P03956 100-469): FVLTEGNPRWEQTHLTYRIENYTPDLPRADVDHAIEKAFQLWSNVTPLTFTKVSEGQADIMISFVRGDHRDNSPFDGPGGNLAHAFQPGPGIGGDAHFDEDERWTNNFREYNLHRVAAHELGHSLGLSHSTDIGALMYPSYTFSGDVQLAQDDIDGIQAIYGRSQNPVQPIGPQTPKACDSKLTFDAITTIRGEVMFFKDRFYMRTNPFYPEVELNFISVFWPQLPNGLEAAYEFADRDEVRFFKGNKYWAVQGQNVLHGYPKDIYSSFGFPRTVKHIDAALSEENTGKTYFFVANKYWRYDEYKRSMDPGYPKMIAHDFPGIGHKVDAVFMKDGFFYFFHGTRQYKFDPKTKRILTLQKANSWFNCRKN

THP-1 cells = experiment: THP-1 soluble protein assay, soluble TNF-α (ELISA); assay type: cell-based, human; details: for inhibition at 3 µM: Homo sapiens, THP-1, 3 μM, read-out: THP % Inhibition @ 3 μM
MMP-13 = MMP-13 (Homo sapiens, UniProt P45452); experiment: MMP-13 inhibition (thiopeptide or fluorescent peptide substrate); assay type: biochemical
MMP-9 = MMP-9 (Homo sapiens, UniProt P14780); experiment: MMP-9 inhibition (thiopeptide or fluorescent peptide substrate); assay type: biochemical
[1] = target: TNF-α converting enzyme (TACE) (Homo sapiens, UniProt P78536); experiment: TACE inhibition (fluorescent peptidyl substrate); assay type: biochemical; details: read-out: TACE IC50
[2] = Table 10, read-out: MMP-13 IC50

Sequence of MMP-9 (P14780 94-707): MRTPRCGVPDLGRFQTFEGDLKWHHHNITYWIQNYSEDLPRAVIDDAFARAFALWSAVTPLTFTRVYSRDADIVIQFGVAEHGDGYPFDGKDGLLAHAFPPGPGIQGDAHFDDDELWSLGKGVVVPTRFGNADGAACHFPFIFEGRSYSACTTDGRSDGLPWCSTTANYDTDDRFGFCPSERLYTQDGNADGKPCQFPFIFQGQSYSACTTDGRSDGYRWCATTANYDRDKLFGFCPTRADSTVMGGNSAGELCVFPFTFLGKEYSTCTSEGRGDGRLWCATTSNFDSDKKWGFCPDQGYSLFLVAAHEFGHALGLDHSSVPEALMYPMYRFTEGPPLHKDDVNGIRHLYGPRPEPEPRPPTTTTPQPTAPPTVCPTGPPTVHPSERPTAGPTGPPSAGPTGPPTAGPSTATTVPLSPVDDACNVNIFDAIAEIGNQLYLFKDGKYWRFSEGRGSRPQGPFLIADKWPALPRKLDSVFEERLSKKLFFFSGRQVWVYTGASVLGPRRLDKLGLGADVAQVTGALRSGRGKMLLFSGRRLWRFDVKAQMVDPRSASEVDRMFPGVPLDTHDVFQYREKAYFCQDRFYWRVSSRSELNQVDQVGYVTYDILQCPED
Sequence of TNF-α converting enzyme (TACE) (P78536 215-824, species assumed): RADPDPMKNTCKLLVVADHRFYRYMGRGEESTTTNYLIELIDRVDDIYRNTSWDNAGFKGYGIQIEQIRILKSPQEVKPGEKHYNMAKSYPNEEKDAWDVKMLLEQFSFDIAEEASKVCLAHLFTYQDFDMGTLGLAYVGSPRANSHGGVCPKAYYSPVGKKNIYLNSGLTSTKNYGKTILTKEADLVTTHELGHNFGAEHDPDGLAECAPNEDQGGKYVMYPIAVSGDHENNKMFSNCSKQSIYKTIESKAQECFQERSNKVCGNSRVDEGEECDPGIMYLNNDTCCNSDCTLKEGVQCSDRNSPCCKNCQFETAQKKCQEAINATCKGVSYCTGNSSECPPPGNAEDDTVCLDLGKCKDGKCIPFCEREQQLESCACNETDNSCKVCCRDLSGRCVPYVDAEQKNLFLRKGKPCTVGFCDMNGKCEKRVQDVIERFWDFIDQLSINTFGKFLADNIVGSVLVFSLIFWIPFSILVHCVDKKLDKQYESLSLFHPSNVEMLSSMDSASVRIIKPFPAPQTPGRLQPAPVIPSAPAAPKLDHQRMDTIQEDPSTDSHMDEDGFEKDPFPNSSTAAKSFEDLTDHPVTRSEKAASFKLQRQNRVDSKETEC

Row | IC50 (MMP-1; read-out: MMP-1 IC50) [nM] | IC50 (MMP-13; read-out: MMP-13 IC50) [nM] | Molecule | IC50 (MMP-9; read-out: MMP-9 IC50) [nM] | IC50 [1] [nM] | inhibition at 3 µM (THP-1 cells; THP-1 cells) [%] | further results
1 |  |  | CC#CCOc1ccc(S(=O)(=O)NCC(=O)NO)cc1 [Example 25, 2-(4-but-2-ynyloxy-Benzenesulfonylamino)-N-hydroxy-acetamide] | 753 | 4.8 | 39 | MMP-1 % inhibition (10) (MMP-1; at (10), concentration unit not given): 47%(10)
2 |  |  | CC#CCOc1ccc(S(=O)(=O)NC(C(=O)NO)C(C)C)cc1 (centres unmarked) [Example 27, 2-(4-but-2-ynyloxy-Benzenesulfonylamino)-N-hydroxy-3-methyl-butyramide] |  | 32 | 75 | IC50 (MMP-1; MMP-1 IC50): 2960 nM; IC50 (MMP-13; MMP-13 IC50): 18 nM; IC50 (MMP-9; MMP-9 IC50): 42 nM
3 | 4390 | 40 | CC#CCOc1ccc(S(=O)(=O)NC(C)C(=O)NO)cc1 (centres unmarked) [Example 30, 2-(4-but-2-ynyloxy-Benzenesulfonylamino)-N-hydroxy-propionamide] | 262 | 6 | 60 | 
4 |  |  | CC1(C)SCCN(S(=O)(=O)c2ccc(OCC#CCO)cc2)C1C(=O)NO (centres unmarked) [Example 61, 4-[4-(4-Hydroxy-but-2-ynyloxy)-benzenesulfonyl]-2,2-dimethyl-thiomorpholine-3-carboxylic Acid Hydroxyamide] |  |  |  | IC50 (MMP-1; Table 10, read-out: MMP-1 IC50): 24 nM; inhibition at 3 µM (THP-1 cells; Table 10): 89%; IC50 (MMP-13; [2]): 13 nM; IC50 ([1]; Table 10): 40 nM; IC50 (MMP-9; MMP-9 IC50, Table 10): 70 nM
5 | 1740 | 52 | CC#CCOc1ccc(S(=O)(=O)N[C@@H](C(=O)NO)[C@@H](C)CC)cc1 [Example 105, (2R,3S)-2-({[4-(2-Butynyloxy)phenyl]sulfonyl}amino)-N-hydroxy-3-methylpentanamide] | 213 | 6.8 | 87 | 
6 | > 10000 | 1120 | CN(CC(=O)NO)S(=O)(=O)c1ccc(OCC#Cc2ccc(Cl)cc2)cc1 [Example 132] | 2370 | 1100 |  | THP % Inhibition @ 3 μM (THP-1 cells; THP-1 cells): 27%
7 | 47 | 5.4 | CC#CCOc1ccc(S(=O)(=O)N(C)[C@H](CSC)C(=O)NO)cc1 [Example 154] | 19 | 3.3 | 90 | 
8 | 1900 | 241 | CC#CCOc1ccc(S(=O)(=O)NC(C(=O)NO)C(C)(C)SCC(=O)O)cc1 (centres unmarked) [Example 166, tert-Butyl {[2-({[4-2-Butynyloxy)phenyl]sulfonyl}amino)-3-(hydroxyamino)-1,1-dimethyl-3-oxopropyl]sulfanyl Acetic Acid, Sodium Salt] | 2940 |  | 55 | 
9 | > 10000 | 322 | CC#CCOc1ccc(S(=O)(=O)NC(CSCCCCCCCCCC/C=C\CC)C(=O)NO)cc1 (centres unmarked) [Example 170, 2-({[4-(2-butynyloxy)phenyl]sulfonyl}amino)-N-hydroxy-3-[(Z)-11-tetradecenylsulfanyl]propanamide] | 1570 | 272 | 7 | 
10 | 2140 | 36 | CC#CCOc1ccc(S(=O)(=O)N[C@@H](C(=O)NO)C(C)(C)SCCCO)cc1 [Example 171, (2S)-2-({[4-(2-Butynyloxy)phenyl]sulfonyl}amino)-N-hydroxy-3-[(3-hydroxypropyl)sulfanyl]-3-methylbutanamide] |  | 25 | 67 | 
11 | > 1000 | 169 | CC#CCOc1ccc(S(=O)(=O)N[C@H](CSCCCO)C(=O)NO)cc1 [Example 172, (2S)-2-({[4-(2-Butynyloxy)phenyl]sulfonyl}amino)-N-hydroxy-3-[(3-hydroxypropyl)sulfanyl]-3-propanamide] |  | 11 | 70 | 
12 |  |  | CC#CCOc1ccc(S(=O)(=O)N2CCSC3(CCCCC3)C2C(=O)NO)cc1 (centres unmarked) [Example 237] |  |  |  | IC50 (MMP-1; Table 9, read-out: MMP-1 IC50): 62 nM; THP % Inhibition @ 3 μM (THP-1 cells; Table 9): 90%; IC50 (MMP-13; Table 9, read-out: MMP-13 IC50): 12 nM; IC50 ([1]; Table 9): 212 nM
13 |  |  | CC#CCOc1ccc(S(=O)(=O)N2CCSC(CC)(CC)C2C(=O)NO)cc1 (centres unmarked) [Example 238] |  |  |  | IC50 (MMP-1; Table 9, read-out: MMP-1 IC50): 38 nM; THP % Inhibition @ 3 μM (THP-1 cells; Table 9): 73%; IC50 (MMP-13; Table 9, read-out: MMP-13 IC50): 6.8 nM; IC50 ([1]; Table 9): 228 nM
14 |  |  | CC1(C)SCCN(S(=O)(=O)c2ccc(OCC#CCO)cc2)[C@H]1C(=O)NO [Example 260, (3S)-N-Hydroxy-4-({4-[(4-hydroxy-2-butynyl)oxy]phenyl}sulfonyl)-2,2-dimethyl-3-thiomorpholine Carboxamide] |  |  |  | IC50 (MMP-1; Table 10, read-out: MMP-1 IC50): 33 nM; inhibition at 3 µM (THP-1 cells; Table 10): 95%; IC50 (MMP-13; [2]): 8.1 nM; IC50 ([1]; Table 10): 20 nM
15 |  |  | CC#CCOc1ccc(S(=O)(=O)N2C[C@@H](CNC(=O)OC(C)(C)C)SC(C)(C)[C@@H]2C(=O)NO)cc1 [Example 273, tert-Butyl{(2R,5S)-4-{[4-(2-butynyloxy)phenyl]sulfonyl}-5-[(hydroxyamino)carbonyl]-6,6-dimethylthiomorpholinyl}methylcarbamate] |  |  |  | inhibition at 3 µM (THP-1 cells; Table 11): 90%; IC50 ([1]; Table 11): 87 nM; IC50 (MMP-9; Table 11, read-out: MMP-9 IC50): 61 nM
16 |  |  | CC#CCOc1ccc(S(=O)(=O)N2C[C@H](CNC(=O)OC(C)(C)C)SC(C)(C)[C@@H]2C(=O)NO)cc1 [Example 274, tert-Butyl{(2S,5S)-4-{[4-(2-butynyloxy)phenyl]sulfonyl}-5-[(hydroxyamino)carbonyl]-6,6-dimethylthiomorpholinyl}methylcarbamate] |  |  |  | THP % Inhibition @ 3 μM (THP-1 cells; Table 11): 84%; IC50 ([1]; Table 11): 59 nM; IC50 (MMP-9; Table 11, read-out: MMP-9 IC50): 107 nM
17 | > 10000 | 530 | CC#CCOc1ccc(S(=O)(=O)NC2(C(=O)NO)CCN(C(=O)OC(C)(C)C)CC2)cc1 [Example 287, tert-Butyl 4-({[4-(2-Butynyloxy)phenyl]sulfonyl}amino)-4-[(hydroxyamino)carbonyl]-1-piperidinecarboxylate] |  | 37 | 60 | 
18 | > 10000 | > 10000 | CC#CCOc1ccc(S(=O)(=O)NC2(C(=O)NO)CCNCC2)cc1 [Example 288, 4-({[4-(2-Butynyloxy)phenyl]sulfonyl}amino)-N-hydroxy-4-piperidinecarboxamide] |  | 50 | 25 | 

Row | Molecule | IC50 (MMP-1; read-out: MMP-1 IC50) [nM] | IC50 (MMP-13; read-out: MMP-13 IC50) [nM] | IC50 (MMP-9; read-out: MMP-9 IC50) [nM] | IC50 [1] [nM] | inhibition at 3 µM (THP-1 cells; THP-1 cells) [%] | further results
19 | 2-[(4-but-2-Ynylthiophenylsulfonyl)methylamino]-N-hydroxyacetamide [Example 134] | 4950 | 84 | 111 |  |  | THP % Inhibition @ 3 μM (THP-1 cells; THP-1 cells): 14%
20 | 2-[[4-Butynyloxy-phenylsulfonyl]-amino]-N-hydroxy-3-(pyridinylthio)propanamide [Example 169] | 1910 | 28 | 160 | 2.9 |  | THP % Inhibition @ 3 μM (THP-1 cells; THP-1 cells): 77%
21 | CC#CCOc1ccc(S(=O)(=O)NC(C)(C)C(=O)NO)cc1 [Example 35, 2-(4-but-2-ynyloxy-Benzenesulfonylamino)-N-hydroxy-2-methyl-propionaiwde] |  | 396 | 1380 | 12.9 | 9 | 
22 | CC#CCOc1ccc(S(=O)(=O)N[C@@H](C(=O)NO)C(C)(C)C)cc1 [Example 106, (2R)-2-({[4-(2-Butynyloxy)phenyl]sulfonyl)amino)-N-hydroxy-3,3-dimethylbutanamide] | 880 | 41 | 224 | 17 | 91 | 
23 | CC#CCOc1ccc(S(=O)(=O)N(CC#CCN(CC)CC)C(C(=O)NO)C(C)C)cc1 (centres unmarked) [Example 126] | 212 | 36 | 149 | 73 |  | THP % Inhibition @ 3 μM (THP-1 cells; THP-1 cells): 93%
24 | CC#CCOc1ccc(S(=O)(=O)N(C)C(C(=O)NO)C(C)(C)SCCN2CCCC2C(=O)OC)cc1 (centres unmarked) [Example 145] | 18 | 2.5 | 7.1 | 109 |  | THP % Inhibition @ 3 μM (THP-1 cells; THP-1 cells): 83%
25 | CC#CCOc1ccc(S(=O)(=O)NC(C(=O)NO)C(C)(C)SCc2cccnc2)cc1 (centres unmarked) [Example 161] | 476 | 7.9 | 130 | 6.4 |  | THP % Inhibition @ 3 μM (THP-1 cells; THP-1 cells): 81%
26 | CC#CCOc1ccc(S(=O)(=O)NC(CSC)C(=O)NO)cc1 (centres unmarked) [Example 167] | 1740 |  | 228 | 3.5 |  | THP % Inhibition @ 3 μM (THP-1 cells; THP-1 cells): 77%
27 | CC#CCOc1ccc(S(=O)(=O)NC(CSCc2ccccc2)C(=O)NO)cc1 (centres unmarked) [Example 168] | 1970 |  | 141 | 4.5 |  | THP % Inhibition @ 3 μM (THP-1 cells; THP-1 cells): 62%
28 | CC#CCOc1ccc(S(=O)(=O)N2CCN(S(C)(=O)=O)CC2C(=O)NO)cc1 (centres unmarked) [Example 227, 1-(4-but-2-ynyloxy-Benzenesulfonyl)-4-methanesulfonyi-piperazine-2-carboxylic Acid Hydroxyamide] | 96 | 6.4 | 51 |  | 81 | 
